Measurements published in patent publication US20240141291A1, “FUNCTIONAL BRAIN REGION-SPECIFIC NEURAL SPHEROIDS AND METHODS OF USE” (THE UNITED STATES OF AMERICA, AS REPRESENTED BY THE …, priority 2021, published 2024).
“Also recorded” adds a separate entry of the source.

Legend:
Assay type in all cases: cell-based, human
APOE4 PFC-like spheroids = test: Alzheimer's Disease model, FLIPR calcium activity after compound treatment; conditions: 90 min after treatment, Memantine 10 μM, Donepezil 1 & 10 uM, EUK-134 1 & 10 μM
Experimental: (§1) Fluorescent Imaging plate Reader (FLIPR): The FLIPR Penta (Molecular Devices) was used to assess calcium fluorescence across the 384-well plate simultaneously and to observe changes after treatment with compounds. The evening before calcium activity was measured, plates were sealed with parafilm and centrifuged at 1485×g for 2-min to get spheroids to the bottom of the well in a centered position. On the day of recording, the plate used for recording was placed in the read plate position inside of the FLIPR following the 2-hour Cal6 incubation at 37° C. Standard filter sets were used for Cal6 imaging with excitation set at 470-495 and emission at 515-575 nm. Fluorescent image reads were taken every 0.6 seconds for all plates, with exposure time of 0.03 and 50% excitation intensity. Recordings from the initial seven plates consisted of 1000 reads and were 10-min recordings with 2.5 gain, while the final two plates consisted of 500 reads (5-min recordings) with a gain of 2. Baseline recordings were taken across all plates and, if applicable, more recordings were obtained 1-, 30-, 60-, and/or 90-min after compound treatment. In between recordings, plates were wrapped in foil and placed back in the incubator at 37° C.
384 Pin Tool: A 384 well pin tool (Rexroth) was used to transfer compounds simultaneously to the spheroid plate. Prior to compound transfer, the pin tool went through four wash cycles where pins were rinsed with dimethyl sulfoxide (DMSO), followed by methanol, then deionized (DI) water, to ensure the pins were clean. Compound transfer via the 384 well pin tool occurred after the baseline recordings with the fluorescent imaging plate reader (FLIPR). […]
Calcium Activity Analysis: Calcium oscillatory peak detection data from FLIPR recordings was obtained through ScreenWorks 5.1 (Molecular Devices). […] There, percent coefficient of variance (% CV) was calculated within each plate to measure how variable each parameter exported was. […]

PFC-like spheroids [1] = test: FLIPR calcium activity with Cal6 dye, control compounds / DAMGO / AD compounds (Example 3); conditions: PFC-like spheroids; recordings 1-, 30-, 60-min after treatment
Experimental: (§2) Viruses and dyes: To assess calcium activity, the calcium dye, Cal6 (Molecular Devices), and genetically encoded calcium indicator, GCaMP6f (Addgene, cat #100836-AAV9) were used. Cal6 was used according to manufacturer's instructions and 10 mL of maintenance media was added to each vial. Two hours before activity was recorded, half of the spheroid media was exchanged for media with Cal6. The plates were covered in foil and placed in the incubator at 37° C. during the 2-hour (hr) incubation period. Since all viruses used were adeno-associated viruses (AAV), they were added to the media on day 7 to allow for 2-weeks expression prior to recording or testing. All viruses were added to the media at 2e5 multiplicity of infection (MOI). GCaMP6f infection occurred via an adeno-associated virus serotype 9 (AAV9) expressed under the CAG promoter for expression in both neurons and astrocytes. Designer receptors exclusively activated by designer drugs (DREADDs) viruses were used to stimulate and inhibit neuronal activity within spheroids. Both viruses were retrograde AAVs expressed under the human Synapsin promoter for expression in neurons and fused with an mCherry fluorophore. The DREADDs viruses either inserted the designer receptor hM4D(Gi), an inhibitory G-protein coupled receptor, or hM3D(Gq), a stimulatory G-protein coupled receptor. Clozapine-N-oxide (CNO, Tocris cat #4936) was suspended in dimethyl sulfoxide (DMSO) and used as the designer drug to activate the DREADDs viruses. CNO was tested at 1 and 10 μM, with data reported from the 1 μM concentration.
as §1
DAMGO was reconstituted in water at a 1 mM concentration and diluted in media to 20 µM such that spheroids would be treated with a final concentration of 10 μM after the half media exchange. Two aspects of OUD were modeled, chronic treatment along with opioid withdrawal. For spheroids subjected to chronic DAMGO treatment, 20 μM DAMGO in maintenance media was added via half media exchange beginning on day 10, with treatments occurring every other day for 10 days, giving a total of five treatments.
384 Pin Tool: A 384 well pin tool (Rexroth) was used to transfer compounds simultaneously to the spheroid plate. Prior to compound transfer, the pin tool went through four wash cycles where pins were rinsed with dimethyl sulfoxide (DMSO), followed by methanol, then deionized (DI) water, to ensure the pins were clean. Compound transfer via the 384 well pin tool occurred after the baseline recordings with the fluorescent imaging plate reader (FLIPR). Here, 60 nL of compound suspended in DMSO was transferred to 60 µL of media in each well, diluting the compounds by 1000-fold and giving a final DMSO concentration of 0.1%.

VTA-like spheroids [2] = test: FLIPR calcium activity with Cal6 dye, control compounds / DAMGO (Example 3); conditions: VTA-like spheroids; recordings 1-, 30-, 60-min after treatment
Experimental: as §2, §1
DAMGO was reconstituted in water at a 1 mM concentration and diluted in media to 20 µM such that spheroids would be treated with a final concentration of 10 μM after the half media exchange. Two aspects of OUD were modeled, chronic treatment along with opioid withdrawal. […]
384 Pin Tool: A 384 well pin tool (Rexroth) was used to transfer compounds simultaneously to the spheroid plate. […] Compound transfer via the 384 well pin tool occurred after the baseline recordings with the fluorescent imaging plate reader (FLIPR). […]

VTA-like spheroids [3] = test: FLIPR calcium activity profiling, compound addition (Examples 1-2); conditions: FLIPR recordings 1-, 30-, 70-min after compound (t1, t30, t70)
Experimental: (§3) To examine neuronal activity changes as a response to compound treatment, calcium activity was assessed using a Fluorescent Imaging Plate Reader (FLIPR) Penta (Molecular Devices). FLIPR Calcium 6 Assay kits were purchased from Molecular Devices (PN: R8190). On day of activity profiling, 96-well or 384-well ULA round bottom (black sides, clear bottom) plates containing spheroids were removed from incubator. Fresh FLIPR Calcium 6 dye was prepared by diluting each vial in 10 ml of freshly prepared, phenol-free complete spheroid maturation media and vortexed for 2 minutes. Half of the media was removed from each well (45 μl from 384-well plate wells, 100 ul from 96-well plate wells) and replaced with equal amounts freshly prepared FLIPR Calcium 6 dye, followed by a 2-hour incubation in the dark in a 37 C, 5% CO2 incubator. After 2-hours, plates were removed and kept at room temperature for 10 minutes, then imaged and calcium activity read using the Molecular Devices FLIPR Penta High-Throughput Cellular Screening System. The FLIPR incubator stage was pre-warmed to 37° C. approximately 30 minutes prior to imaging. Standard filter sets were used for Cal6 imaging (excitation 470-495 and emission 515-575 nm). FLIPR recordings were obtained with the camera in normal mode, and settings included: gain was set to 2.5, exposure time to 0.03 seconds, and excitation intensity to 50%. Fluorescent image reads were taken every 0.6 seconds for a total of 1000 reads over a total run time of 10 minutes. Four recordings total were captured: baseline activity, 1-min after compound treatment, 30- and 70-min after compound treatment.
(§4) After baseline activity, cell plates were removed from the FLIPR and transferred to a 384-well pin tool instrument. Prior to compound addition, the pin tool was subjected to 4 wash cycles exposing the pins to water, methanol, and DMSO each time. Compounds, including either “QC compounds” (compounds with known mechanism of action, listed in results) or the mu opioid receptor selective-agonist DAMGO, were transferred from a compound source plate to the 384-well spheroid plate. Immediately after compound transfer, the cell plate was placed back in the FLIPR for the recording that was 1-min after compound transfer to begin. After this 10-min recording, another recording was captured 30-min after compounds were transferred. After the 30-min recording, the plate was again removed from the FLIPR and transferred to the pin tool instrument. During this phase of compound transfer, naloxone was transferred to wells that received DAMGO during the first compound transfer. Following this second compound transfer, the cell plate was placed back in the FLIPR and a final recording was obtained 30-min later, and 70-min after the initial compound transfer.
(§5) The FLIPR software ScreenWorks PeakPro 2.0 was used for the initial analysis of calcium activity using automated peak detection settings. With these settings, average peak statistics over each 10-min recording for each well were exported from PeakPro to Microsoft Excel. ScreenWorks Peak Pro 2.0 software was used to extract 17 activity features describing different aspects of calcium activity profiles. These included peak amplitude (PkA), peak amplitude standard deviation (PkASD), peak count (PkCt), peak rate (measured as peaks per minute, PpM), peak rate SD, peak spacing (PkSp), peak spacing SD (PkSpSD), peak spacing regularity, area under the curve (AUC), AUC SD, peak rise slope, peak rise slope SD, peak rise time (PkRt), peak ride time SD (PkRtSD), peak decay slope, peak decay slope SD, peak decay time (PkDt), and peak decay time SD (PkDtSD). To assess variability of these peak parameters, percent coefficients of variance (CV) were calculated by dividing the standard deviation/mean and multiplying by 100 for each designer spheroid type, and those with % CV's […] 20% were removed from future analysis. […]

PFC-like spheroids [4] = test: as above; conditions: FLIPR recordings 1-, 30-, 70-min after compound (t1, t30, t70)
Experimental: as §3, §4, §5

[5] = system: single neuron spheroids expressing hM3Dq or hM4Di; test: Chemogenetic (DREADDs) activation with CNO, FLIPR calcium activity; conditions: 1 uM CNO
Experimental: Viruses and dyes: To assess calcium activity, the calcium dye, Cal6 (Molecular Devices), and genetically encoded calcium indicator, GCaMP6f (Addgene, cat #100836-AAV9) were used. Cal6 was used according to manufacturer's instructions and 10 mL of maintenance media was added to each vial. Two hours before activity was recorded, half of the spheroid media was exchanged for media with Cal6. The plates were covered in foil and placed in the incubator at 37° C. during the 2-hour (hr) incubation period. Since all viruses used were adeno-associated viruses (AAV), they were added to the media on day 7 to allow for 2-weeks expression prior to recording or testing. […]
Fluorescent Imaging plate Reader (FLIPR): The FLIPR Penta (Molecular Devices) was used to assess calcium fluorescence across the 384-well plate simultaneously and to observe changes after treatment with compounds. The evening before calcium activity was measured, plates were sealed with parafilm and centrifuged at 1485×g for 2-min to get spheroids to the bottom of the well in a centered position. On the day of recording, the plate used for recording was placed in the read plate position inside of the FLIPR following the 2-hour Cal6 incubation at 37° C. […] Fluorescent image reads were taken every 0.6 seconds for all plates, with exposure time of 0.03 and 50% excitation intensity. […]

Compound	reversal of APOE4-induced deficits in peak count and spacing (APOE4 PFC-like spheroids)	functional response (calcium activity peak parameters) to control compound (PFC-like spheroids [1])	functional response (calcium activity peak parameters) to control compound (VTA-like spheroids [2])	effect on calcium activity peak parameters compared to DMSO controls (VTA-like spheroids [3])	effect on calcium activity peak parameters compared to DMSO controls (PFC-like spheroids [4])	effect of chemogenetic activation on peak parameters ([5]; spheroids with Dopa or Gluta composition expressing hM3Dq)	effect of chemogenetic inhibition on peak parameters ([5]; spheroids with Dopa or Gluta composition expressing hM4Di)
COc1cc2c(cc1OC)C(=O)C(CC1CCN(Cc3ccccc3)CC1)C2 (stereo not drawn) [Donepezil]	reverse deficits caused by APOE4 GABA neurons; also recorded: restore deficits in peak count						
CCN1CCCC1CNC(=O)c1cc(S(N)(=O)=O)ccc1OC (stereo not drawn) [Sulpiride]		increased peak count and rate while decreasing peak spacing	no changes were observed in measures of peak frequency but increases in peak width and peak decay time were observed	did not impact calcium activity, though there was a statistical trend toward significantly increasing PkCt 1-min after treatment	significantly increased PkCt and PpM while decreasing PkSp 70-min after treatment		
COc1cccc(C=NCCN=Cc2cccc(OC)c2[O-])c1[O-].[Cl-].[Mn+3] [EUK-134]	reverse deficits caused by APOE4 GABA neurons; also recorded: restore deficits in peak count						
NCc1cc(=O)[nH]o1 [Muscimol]		complete inhibition of activity that began immediately after treatment and persisted for at least 60-min	complete inhibition of activity that began immediately after treatment and persisted for at least 60-min	total inhibition of calcium activity that lasted throughout the entire recording period	total inhibition of calcium activity that lasted throughout the entire recording period		
C[N+]1([O-])CCN(C2=Nc3cc(Cl)ccc3Nc3ccccc32)CC1 [CNO, Clozapine-N-oxide]						chemogenetic activation increased measures of peak frequency such as peak count and rate while reducing parameters such as peak spacing and peak width	the opposite was observed for these spheroids subjected to chemogenetic inhibition
CC12CC3CC(C)(C1)CC(N)(C3)C2 [Memantine]	reverse deficits caused by APOE4 GABA neurons; also recorded: restore deficits in peak count	increases in peak count and rate and decreases in peak amplitude	increases in peak count and rate and decreases in peak amplitude				
